US20230133169A1, “EGFR INHIBITOR, COMPOSITION, AND METHOD FOR PREPARATION THEREOF” (BETTA PHARMACEUTICALS CO., LTD, priority 2019, published 2023)

What was measured:
EGFR Δ19del/T790M/C797S = EGFR Δ19del/T790M/C797S (Homo sapiens, UniProt P00533, T790M/C797S, form not given); assay: EGFR Δ19del/T790M/C797S kinase test (mobility variation analysis, Caliper EZ Reader); type: biochemical; settings: kinase inhibition, top concentration 300 nM
Procedure: Mobility variation analysis was performed to determine the affinity of the compound for EGFRΔ19del/T790M/C797S. The enzymatic reaction scheme is as follows:
1. Prepare 1*kinase buffer as follows.
2. Prepare compound concentration gradient: The test compound was tested at concentration of 300 nM, diluted with 100% DMSO solution in a 96-well plate to 100-fold final concentration, and then diluted to 3-fold concentration with Precision.10. Compound at each concentration was further diluted to 5-fold final concentration of intermediate dilution.
3. Add 5 μL of each prepared intermediate dilution compounds to the compound wells of 384-well plate respectively, and test the repeated wells of each concentration; add 5 μL of 5% DMSO into the negative control well and the positive control well respectively.
4. Prepare 2.5-fold final concentration of kinase solution with 1×Kinase buffer.
5. Add 10 μL of 2.5-fold final concentration of kinase solution to the compound well and the positive control well; add 10 μL of 1×Kinase buffer to the negative control well.
6. Centrifuge at 1000 rpm for 30 s, shake the reaction plate for well mixing, and then incubate at room temperature for 10 minutes.
7. Prepare a mixture of ATP and Kinase substrate (5-FAM-EEPLYWSFPAKKK-CONH2) at 2.5-fold final concentration with 1×Kinase buffer.
8. Add 10 μL mixture of ATP and substrate at 2.5-fold final concentration to start reaction.
9. Centrifuge the 384-well plate at 1000 rpm for 30 s, shake it well and then incubate it at room temperature for corresponding time.
10. Add 30 μL of stop detection solution to stop the kinase reaction, centrifuge at 1000 rpm for 30 s, and shake it well.
11. Read conversion rate with Caliper EZ Reader.
Convert the conversion rate to inhibition rate:
inhibition %=(max−conversion % sample)/(max−min)*100.
“max”: Mean value of negative control wells; “min”: Mean value of positive control wells; conversion % sample: Sample conversion reading.
GraphPad Prism 5 was used for % inhibition curve fitting to obtain the IC50 value.
The calculation formula: Y=inhibition %_min+(inhibition %_max−inhibition %_min)/(1+(IC50/X)^slope). wherein, Y is inhibition %; X is concentration of compound to be tested.

[1] = target: Ba/F3-Δ19del/T790M/C797S cells (Homo sapiens, UniProt P00533, T790M/C797S, cells depend on it, form not given); assay: Ba/F3-Δ19del/T790M/C797S cell proliferation assay (CellTiter Glo); type: cell-based; settings: 72 hours, CTG luminescence, read-out: BaF3 Δ19del/T790M/C797S IC50
Procedure: (§1) RPMI 1640, 10% FBS and 1% PS; DMEM, 10% FBS and 1% PS
(§2) a) The medium was preheated in a 37° C. water bath in advance.
(§3) b) Remove the cryogenic vials from the liquid nitrogen tank, quickly put it into a 37° C. water bath, and completely melt it in 1 min.
(§4) c) Transfer the cell suspension to a 15 mL centrifuge tube containing 8 mL of medium, and centrifuge at 1000 rpm for 5 min.
(§5) d) Discard the supernatant, resuspend the cells in 1 mL of culture medium, transfer it to a 75 cm^2 flask containing 15 mL of culture medium, and culture the cells in a incubator with 5% CO2 at 37° C.
(§6) b) Collect the cells in a 15 mL centrifuge tube and centrifuge at 1000 rpm for 5 min. Discard the supernatant, count to make the cell density at 1×10^4 cells/mL, and then place it in a incubator with 5% CO2 at 37° C.
(§7) a) Dilute the test compound (20 mM stock solution) to 10 mM with 100% DMSO as the starting concentration, and then serially dilute 3 times with a “9+0” concentration in 96-well dilution plate (Cat #P-05525, Labcyte);
(§8) b) Dilute compound solution thereof to 1:100 in medium to prepare 10-fold working solution.
(§9) a) Centrifuge the growth cells in logarithmic phase at 1000 rpm for 5 minutes, resuspend the cells in culture medium, and then count the cells;
(§10) b) Inoculate the cells into a 96-well cell culture plate with a density of 2000 cells/well;
(§11) a) 15 μl of compounds prepared at step 2 were added to cell plate, the final concentrations were […], 370.4, 123.5, 41.2, 13.7, 4.6, 1.5 and 0 nM, and the final concentration of DMSO was 0.1%. The blank control well was a culture medium (0.1% DMSO);
(§12) b) Incubate cells in an incubator for another 72 hours;
(§13) a) Take out the 96-well cell culture plate and add 50 μl of CTG reagent (CellTiter Glo kit, promega, Cat#G7573);
(§14) b) Shake the plate for 2 minutes and let cool at room temperature for 10 minutes;
(§15) c) Read luminous signal value with PerkinElmer reader.
(§16) The data were analyzed by GraphPad Prism 6.0 software to obtain the fitting curve of compound activity.
(§17) Fitting compound IC50 from nonlinear regression equation:
(§18) Y=Min+(Max−Min)/(1+10^((Log IC50−X)*slope));
(§19) X: Logarithm of compound concentration; Y: luminous signal value.

A431 wild-type cell line = assay: A431 wild-type cell proliferation assay (CellTiter Glo); type: cell-based; settings: Homo sapiens, A-431, 72 hours, CTG luminescence
Procedure: as §1, §2, §3, §4, §5, §6, §7, §8, §9, §10, §11, §12, §13, §14, §15, §16, §17, §18, §19

[2] = Pharmacokinetic experiment in rats, oral administration; type: in vivo; settings: Sprague-Dawley (SD), rat, 5 mg/kg, male SD rats, 5 mpk, plasma
Procedure: Test 3 Pharmacokinetic Experiment
Male SD rats (3 rats in each group) were administered orally, and fasted overnight from at least 12 hours before administration to 4 hours after administration before the experiment. Blood was taken from the orbital vein. The time points of blood collection for oral administration were: 15 min, 30 min, 1 hr, 2 hr, 4 hr, 7 hr and 24 hr, the dosage of administration was 5 mpk, and the blood collection volume was 300 μL. After anticoagulant treatment with 2.0% EDTA, the blood was centrifuged at 4000 rpm for 5 min, and then about 100 μL was taken and placed for testing at −20° C. Plasma samples were analyzed by liquid chromatography tandem mass spectrometry (LC-MS/MS). The plasma concentration-time data of individual animals were analyzed by the non-compartment model of WinNonlin (V4.1, Pharsight) software, and the pharmacokinetic parameters of the compounds tested were calculated.

Chain of EGFR Δ19del/T790M/C797S (P00533 with tags, fused parts or gaps DEL746-750/T790M/C797S, form open): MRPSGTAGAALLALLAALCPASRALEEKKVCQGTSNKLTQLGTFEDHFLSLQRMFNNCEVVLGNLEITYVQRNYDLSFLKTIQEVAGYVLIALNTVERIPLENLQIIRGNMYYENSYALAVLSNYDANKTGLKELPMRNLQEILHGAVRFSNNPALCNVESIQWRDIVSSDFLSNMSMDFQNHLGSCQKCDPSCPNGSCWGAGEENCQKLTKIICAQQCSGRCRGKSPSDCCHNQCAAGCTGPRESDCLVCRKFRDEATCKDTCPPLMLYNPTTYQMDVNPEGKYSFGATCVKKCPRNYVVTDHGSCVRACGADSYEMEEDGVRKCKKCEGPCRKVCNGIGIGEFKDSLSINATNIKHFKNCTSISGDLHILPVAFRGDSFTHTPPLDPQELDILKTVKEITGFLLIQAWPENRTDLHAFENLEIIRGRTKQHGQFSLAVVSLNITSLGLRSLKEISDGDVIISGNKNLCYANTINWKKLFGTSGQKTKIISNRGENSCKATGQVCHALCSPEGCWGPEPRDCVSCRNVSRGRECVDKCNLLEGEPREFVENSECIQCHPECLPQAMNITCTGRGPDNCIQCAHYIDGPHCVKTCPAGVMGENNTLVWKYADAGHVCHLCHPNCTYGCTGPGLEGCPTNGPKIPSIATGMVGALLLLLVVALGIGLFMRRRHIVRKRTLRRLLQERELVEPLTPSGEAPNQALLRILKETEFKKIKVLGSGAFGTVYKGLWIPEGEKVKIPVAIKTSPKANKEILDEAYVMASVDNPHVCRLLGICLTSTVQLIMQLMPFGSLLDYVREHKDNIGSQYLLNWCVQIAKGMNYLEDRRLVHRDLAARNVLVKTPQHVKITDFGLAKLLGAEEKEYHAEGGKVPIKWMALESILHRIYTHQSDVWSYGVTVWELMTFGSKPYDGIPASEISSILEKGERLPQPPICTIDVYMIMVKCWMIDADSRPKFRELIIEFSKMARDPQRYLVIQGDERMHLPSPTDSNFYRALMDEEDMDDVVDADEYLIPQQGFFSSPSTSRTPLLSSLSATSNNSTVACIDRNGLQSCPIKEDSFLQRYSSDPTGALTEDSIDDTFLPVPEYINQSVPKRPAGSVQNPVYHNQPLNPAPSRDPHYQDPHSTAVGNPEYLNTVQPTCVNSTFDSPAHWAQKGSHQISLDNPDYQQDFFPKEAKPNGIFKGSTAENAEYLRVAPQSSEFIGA
Chain of Ba/F3-Δ19del/T790M/C797S cells (P00533 with tags, fused parts or gaps DEL746-750/T790M/C797S, form open): as above

With `CCc1cc(Nc2ncc(Br)c(Nc3ccc(C4CC4)cc3P(C)(C)=O)n2)c(OC)cc1N1CCC(N2CCN(C)CC2)CC1` [Compound 1, (2-((5-Bromo-2-((5-ethyl-2-methoxy-4-(4-(4-methylpiperazin-1-yl)piperidin-1-yl)phenyl)amino)pyrimidin-4-yl)amino)-5-cyclopropylphenyl)dimethylphosphine oxide] the IC50 (EGFR Δ19del/T790M/C797S) was 0.3 nM, the GI50 [1] was 1.2 nM and the IC50 (A431 wild-type cell line) was 682 nM. It also gave an AUC(0-t) [2] of 32900 ng·h/mL, a Cmax [2] of 2100 ng/mL and a half-life ([2]; read-out: t½ (converted)) of 9.1 h.
With `CCn1cc(-c2cc(Nc3ncc(Br)c(Nc4ccc(C5CC5)cc4P(C)(C)=O)n3)c(OC)cc2N2CCC(N3CCN(C)CC3)CC2)cn1` [Compound 2] the IC50 (EGFR Δ19del/T790M/C797S) was 0.4 nM, the GI50 [1] was 7.2 nM and the IC50 (A431 wild-type cell line) was 268 nM.
`CCn1cc(-c2cc(Nc3ncc(OC)c(Nc4ccc(C5CC5)cc4P(C)(C)=O)n3)c(OC)cc2N2CCC(N3CCN(C)CC3)CC2)cn1` [Compound 3, (5-Cyclopropyl-2-((2-((5-(1-ethyl-1H-pyrazol-4-yl)-2-methoxy-4-(4-(4-methylpiperazin-1-yl)piperidin-1-yl)phenyl)amino)-5-methoxypyrimidin-4-yl)amino)phenyl)dimethylphosphine oxide] showed an IC50 (EGFR Δ19del/T790M/C797S) of 0.4 nM, a GI50 [1] of 55.4 nM and an IC50 (A431 wild-type cell line) of 830 nM.
In the case of `COc1cc(N2CCC(N3CCN(C)CC3)CC2)ccc1Nc1ncc(Cl)c(Nc2ccc(C3CC3)cc2P(C)(C)=O)n1` [Compound 4], the IC50 (EGFR Δ19del/T790M/C797S) is reported as 1.2 nM.
Compound `CCc1cc(Nc2ncc(OC)c(Nc3ccc(C4CC4)cc3P(C)(C)=O)n2)c(OC)cc1N1CCC(N2CCN(C)CC2)CC1` [Compound 5] has an IC50 (EGFR Δ19del/T790M/C797S) of 1.6 nM and a GI50 [1] of 302 nM.
In the case of `CCc1cc(Nc2ncc(Br)c(Nc3ccc(C4CCOCC4)cc3P(C)(C)=O)n2)c(OC)cc1N1CCC(N2CCN(C)CC2)CC1` [Compound 6, (2-((5-Bromo-2-((5-ethyl-2-methoxy-4-(4-(4-methylpiperazin-1-yl)piperidin-1-yl)phenyl)amino)pyrimidin-4-yl)amino)-5-(tetrahydro-2H-pyran-4-yl)phenyl)dimethylphosphine oxide], the IC50 (EGFR Δ19del/T790M/C797S) is reported as 0.7 nM, the GI50 [1] is reported as 15.6 nM and the IC50 (A431 wild-type cell line) is reported as 674 nM.
For `CCc1cc(Nc2ncc(Cl)c(Nc3ccc(C4CCCC4)cc3P(C)(C)=O)n2)c(OC)cc1N1CCC(N2CCN(C)CC2)CC1` [Compound 7, (2-((5-Chloro-2-((5-ethyl-2-methoxy-4-(4-(4-methylpiperazin-1-yl)piperidin-1-yl)phenyl)amino)pyrimidin-4-yl)amino)-5-cyclopentylphenyl)dimethylphosphine oxide], the IC50 (EGFR Δ19del/T790M/C797S) was 1.1 nM, the GI50 [1] was 38.3 nM and the IC50 (A431 wild-type cell line) was 1400 nM.
Compound `CCc1cc(Nc2ncc(Br)c(Nc3ccc(N4CCOCC4)cc3P(C)(C)=O)n2)c(OC)cc1N1CCC(N2CCN(C)CC2)CC1` [Compound 8] has an IC50 (EGFR Δ19del/T790M/C797S) of 0.3 nM, a GI50 [1] of 30.4 nM and an IC50 (A431 wild-type cell line) of 886 nM.
Work on `COc1cc(N2CCC(N3CCN(C)CC3)CC2)c(-c2ccn(C)c2)cc1Nc1ncc(Br)c(Nc2ccc(C3CC3)cc2P(C)(C)=O)n1` [Compound 9, (2-((5-Bromo-2-((2-methoxy-5-(1-methyl-1H-pyrrol-3-yl)-4-(4-(4-methylpiperazine-1-yl)piperidin-1-yl)phenyl)amino)pyrimidin-4-yl)-amino)-5-cyclopropylphenyl)dimethylphosphine oxide] yielded an IC50 (EGFR Δ19del/T790M/C797S) of 0.3 nM, a GI50 [1] of 5.2 nM and an IC50 (A431 wild-type cell line) of 604 nM.
For `COc1cc(N2CCC(N3CCN(C)CC3)CC2)c(C)cc1Nc1ncc(Br)c(Nc2ccc(C3CC3)cc2P(C)(C)=O)n1` [Compound 10, (2-((5-Bromo-2-((2-methoxy-5-methyl-4-(4-(4-methylpiperazin-1-yl)piperidin-1-yl)phenyl)Amino)pyrimidin-4-yl)amino)-5-cyclopropylphenyl)dimethylphosphine oxide], the IC50 (EGFR Δ19del/T790M/C797S) was 0.3 nM, the GI50 [1] was 9.7 nM and the IC50 (A431 wild-type cell line) was 543 nM.
For `COc1cc(N2CCC(N3CCN(C)CC3)CC2)ccc1Nc1ncc(Cl)c(Nc2ccc(C)cc2P(C)(C)=O)n1` [Control example 1, reference compound], the IC50 (EGFR Δ19del/T790M/C797S) was 2.7 nM and the GI50 [1] was 49.9 nM.
